Results as given in patent publication US20230240288A1, “FRUIT TREE POLLINATION METHOD FOR PREVENTING AND CONTROLLING ERWINIA AMYLOVORA-CAUSED DISEASE” (ZHEJIANG UNIVERSITY, priority 2022, published 2023).
Converted amounts (≈) assume the structure as drawn.

How the values were obtained:
Erwinia amylovora [1] = assay: Orchard pollination test (II): liquid pollination, bacteria-free pollen, orchard with moderate pear fire blight; conditions: artificial pollination with pollen containing the agent, moderate occurrence orchard
Method: 10 g of xanthan gum was dissolved in 2.5 L of continuously-boiling water and cooled to obtain a solution I; 6.5 kg of white sugar was dissolved with 10 L of hot water to obtain a solution II; 25 g of calcium nitrate and 5 g of boric acid were dissolved in 0.5 L of water to obtain a solution III; the above three solutions were poured into a large container, then added with 30 L of water, and stirred well to prepare a nutrient solution for later use. […]
4 g of the pollen was added to 4 L of a prepared nutrient solution containing the agent, stirred to make the pollen evenly dispersed to prepare a pollen suspension, which was then pollinated by spraying with a shoulder-back electric sprayer. […] A pollen suspension prepared with water instead of the agent was set as a positive control group, and the pollen suspension prepared with water instead of the agent and sprayed on disease-free trees was set as a negative control group, and 3 trees were treated by each group.2 weeks after pollination, a fruit setting rate and the number of flower rot and diseased fruit were counted to calculate an incidence.

[2] = tested on: Erwinia amylovora XJSZ0102; assay: Toxicity of bactericides against Erwinia amylovora (growth inhibition OD600, EC50 regression)
Erwinia amylovora [3] = assay: Orchard pollination test (I): liquid pollination, bacteria-carrying pollen, disease-free bergamot pear trees; conditions: artificial pollination with pollen suspension containing the agent
Method: 10 g of xanthan gum was dissolved in 2.5 L of continuously-boiling water and cooled to obtain a solution I; 6.5 kg of white sugar was dissolved with 10 L of hot water to obtain a solution II; 25 g of calcium nitrate and 5 g of boric acid were dissolved in 0.5 L of water to obtain a solution III; the above three solutions were poured into a large container, then added with 30 L of water, and stirred well to prepare a nutrient solution for later use.
Each agent was diluted with water to form a stock solution, and 100 mL of the stock solution was added to 9.9 L of the nutrient solution, fully stirred and mixed, such that a final concentration of the agent in the nutrient solution was shown in Table 7, and 9 groups of agent treatments were obtained in total.
4 g of the pollen was added to 4 L of a prepared nutrient solution containing the agent, stirred to make the pollen evenly dispersed to prepare a pollen suspension, which was then pollinated by spraying with a shoulder-back electric sprayer. The pollination period was at 40% blooming and at 80% blooming separately, each tree was sprayed with 1 L of the pollen suspension, and each agent treatment group was sprayed to pollinate 3 trees. […] 2 weeks after pollination, a fruit setting rate and the number of flower rot and diseased fruit were counted to calculate an incidence.

[4] = tested on: Erwinia amylovora XJSZ0102; assay: Inhibition zone (filter paper) method, high-concentration screening of 52 agents; assay type: cell-based; conditions: results of filter paper method and turbidimetry; at a high concentration
[5] = Erwinia amylovora, XJSZ0102, 24 h, read-out: Inhibition rate (%)

Row | Molecule | incidence of pear fire blight-based flower rot and fruit rot, compared with positive control group (Erwinia amylovora [1]) | EC50 ([2]; Erwinia amylovora, XJSZ0102, 24 h) | inhibition at 0.0125 µg/mL [2, 5] | inhibition at 0.0175 µg/mL [2, 5] | inhibition at 0.025 µg/mL [2, 5] | inhibition at 0.035 µg/mL [2, 5] | inhibition at 0.05 µg/mL [2, 5] | incidence of flower rot and fruit rot caused by pear fire blight, compared with positive control (Erwinia amylovora [3]) | bacteriostatic effect on Erwinia amylovora [4] | Inhibition rate (%) ([2]; concentration 0.100 mg/L, 24 h) | Inhibition rate (%) ([2]; concentration 0.160 mg/L, 24 h) | Inhibition rate (%) ([2]; concentration 0.256 mg/L, 24 h) | Inhibition rate (%) ([2]; concentration 0.410 mg/L, 24 h) | Inhibition rate (%) ([2]; concentration 0.655 mg/L, 24 h) | EC50 ([2]; toxic regression analysis of bacteriostasis rate, 24 h)
1 | CCCSc1ccc2nc(NC(=O)OC)[nH]c2c1 [Albendazole, albendazole] | significantly lower than that of the positive control group | 0.022 µg/mL (≈ 0.0829 µM) | 15.2% | 33% | 54.6% | 82% | 95.4% | significantly lower incidence than that of the positive control | desirable bacteriostatic effect |  |  |  |  |  | 
2 | zhongshengmycin | significantly lower than that of the positive control group |  |  |  |  |  |  | significantly lower incidence than that of the positive control | desirable bacteriostatic effect | 28.58% | 40.31% | 56.63% | 66.08% | 81.07% | 0.22 µg/mL
